From ChEMBL document CHEMBL3137667, “[Drug-induced liver injury; fourteenth updated edition of the bibliographic database of liver injuries and related drugs]” (Gastroenterol Clin Biol, 2004)

Assays:
[1] = human, serum, 4383 h
[2] = human
[3] = human; remark: listed apart in the source
[4] = human; remark: listed apart in the source
[5] = human; remark: listed apart in the source
[6] = Highest frequency of moderate liver toxicity observed during clinical trials, expressed as a percentage. [column '% BIOL' in source]; conditions: human
[7] = human; remark: listed apart in the source
[8] = human; remark: listed apart in the source
[9] = human; remark: listed apart in the source
[10] = Times to onset, minimal and maximal, observed in the indexed observations. [column 'DELAI' in source]; conditions: human
[11] = human; remark: listed apart in the source
[12] = human, serum
[13] = human; remark: listed apart in the source
[14] = human, serum; remark: listed apart in the source
[15] = Highest frequency of acute liver toxicity observed during clinical trials, expressed as a percentage. [column '% AIGUE' in source]; conditions: human
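Throughout, for Hepatotoxicity (association with vascular disease): count of indexed literature references reporting vascular liver injury in humans, e.g. peliosis hepatitis, hepatic veno-occlusive disease or Budd-Chiari syndrome.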
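Throughout, for Hepatotoxicity (benign tumour): value is a count of indexed literature references citing a benign tumour confirmed by histopathology.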
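Throughout, for Hepatotoxicity (choleostasis): human cholestatic liver injury, shown by histopathology or by peak ALT or AST elevation over alkaline phosphatase ratio below 2, value counts indexed literature reports.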
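Throughout, for Hepatotoxicity (chronic liver disease): chronic liver injury confirmed by histopathology or persistently raised serum aminotransferase activity beyond 6 months, value given as the count of indexed literature references.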
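Throughout, for Hepatotoxicity (cirrhosis): value is a count of indexed literature references reporting cirrhosis confirmed by histopathology.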
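Throughout, for Hepatotoxicity (cytolytic): human cytolytic liver injury, shown by histopathology or by a ratio above 5 of peak ALT or AST elevation to alkaline phosphatase elevation, value counts indexed references.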
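Throughout, for Hepatotoxicity (granulomatous hepatitis): value is a count of indexed literature references reporting granulomatous liver disease confirmed by histopathology.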
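Throughout, for Hepatotoxicity (malignant tumour): malignant tumour confirmed by histopathology, value gives the count of indexed literature references reporting it.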
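Throughout, for Hepatotoxicity (severe hepatitis): human clinical data: severe hepatitis, meaning potentially life-threatening liver failure or clinically observed cases, the value counts how many indexed literature references report it.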
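Throughout, for Hepatotoxicity (steatosis): steatosis confirmed by histopathology, value is the count of indexed references.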

| Structure (SMILES) | Hepatotoxicity (chronic liver disease) [1] | Hepatotoxicity (association with vascular disease) [2] | Hepatotoxicity (benign tumour) [3] | Hepatotoxicity (choleostasis) [4] | Hepatotoxicity (cirrhosis) [5] | Hepatotoxicity (moderate) [6] | Hepatotoxicity (severe hepatitis) [7] | Hepatotoxicity (malignant tumour) [8] | Hepatotoxicity (cytolytic) [9] | Hepatotoxicity (time to onset) [10] | Hepatotoxicity (granulomatous hepatitis) [11] | Hepatotoxicity (acute) [12] | Hepatotoxicity (steatosis) [13] | Hepatotoxicity (moderate) [14] | Hepatotoxicity (acute) [15] | Hepatotoxicity (moderate) ([6]; Liver) | Hepatotoxicity (severe hepatitis) ([7]; Liver) | Hepatotoxicity (acute) ([15]; Liver) |
| --- | --- | --- | --- | --- | --- | --- | --- | --- | --- | --- | --- | --- | --- | --- | --- | --- | --- | --- |
| CCN(CC)CCCC(C)Nc1ccnc2cc(Cl)ccc12 (stereo not given) [CHLOROQUINE] | 0 | 0 | 0 | 1 | 0 | 0% | 0 | 0 | 4 | 1 day - 4 months | 1 | 8 | 0 | 7 | 0% | – | – | – |
| O=NN(CCCl)C(=O)N[C@H]1C(O)O[C@H](CO)[C@@H](O)[C@@H]1O (stereo not given in full) [CHLOROZOTOCIN] | 0 | 0 | 0 | 1 | 0 | 33% | 0 | 0 | 1 | 1.5 months | 0 | 2 | 0 | 2 | 0% | – | – | – |
| CN(C)CCC(c1ccc(Cl)cc1)c1ccccn1.O=C(O)/C=C\C(=O)O (stereo not given) [CHLORPHENIRAMINE MALEATE] | 0 | 0 | 0 | 1 | 0 | – | – | 0 | 1 | 1 month | 0 | 2 | 0 | 0 | – | 0% | 0 | 0% |
| CN(C)CC/C=C1/c2ccccc2Sc2ccc(Cl)cc21 [CHLORPROTHIXENE] | 0 | 0 | 0 | 1 | 0 | 0% | 0 | 0 | 0 | 1 week | 0 | 1 | 0 | 0 | 0% | – | – | – |
| CCOC(=O)[C@H](CCc1ccccc1)N[C@H]1CCCN2CCC[C@@H](C(=O)O)N2C1=O [CILAZAPRIL] | 0 | 0 | 0 | 0 | 0 | 1.2% | 0 | 0 | 0 | 2 months | 0 | 0 | 0 | 1 | 0% | – | – | – |
| C(=C\c1ccccc1)/CN1CCN(C(c2ccccc2)c2ccccc2)CC1 [CINNARIZINE] | 0 | 0 | 0 | 2 | 0 | 0% | 0 | 0 | 0 | 3 weeks - 7 weeks | 0 | 2 | 0 | 0 | 0% | – | – | – |
| COc1cc(N)c(Cl)cc1C(=O)NC1CCN(CCCOc2ccc(F)cc2)CC1OC (stereo not given) [CISAPRIDE] | 0 | 0 | 0 | 0 | 0 | 0% | 0 | 0 | 1 | 4 days | 0 | 1 | 0 | 2 | 0% | – | – | – |
| Nc1nc(Cl)nc2c1ncn2[C@H]1C[C@H](O)[C@@H](CO)O1 [CLADRIBINE] | 0 | 1 | 0 | 0 | 0 | 13% | 0 | 0 | 1 | 2 weeks - 6 months | 0 | 2 | 0 | 4 | 9.1% | – | – | – |
| CN1C(=O)CC(=O)N(c2ccccc2)c2cc(Cl)ccc21 [CLOBAZAM] | 0 | 0 | 0 | 0 | 0 | 2.1% | 0 | 0 | 0 | 1 week | 0 | 0 | 0 | 1 | 0% | – | – | – |
| CC(Cc1ccccc1)NCc1ccccc1Cl (stereo not given) [CLOBENZOREX] | 0 | 0 | 0 | 0 | 0 | 0% | 0 | 0 | 1 | 2 weeks | 0 | 1 | 0 | 0 | 0% | – | – | – |
| CCN(CC)CCOc1ccc(C(=C(Cl)c2ccccc2)c2ccccc2)cc1 [CLOMIPHENE] | 0 | 0 | 1 | 1 | 0 | 0% | 0 | 1 | 1 | 2 weeks - 8 years | 0 | 2 | 0 | 1 | 0% | – | – | – |
